Data as given in PMC12308784, “Organometallic Half-Sandwich Complexes of 1,10-Phenanthroline Derivatives with Improved Solubility, Albumin-Binding, and Nanoformulation Potential Targeting Drug Resistance in Cancer” (Inorganic Chemistry, 2025).
Read-outs that look alike come from different tables or passages of the source. Marks after values point to notes of the source that are not given here.

Columns and labels:
MCF-7 = test: PrestoBlue cytotoxicity assay; type: cell-based
Method: (§1) MDA-MB-231 breast adenocarcinoma and MCF-7 and T-47D invasive breast carcinomas were purchased from the Developmental Therapeutic Program of the National Cancer Institute (NIH, USA), and they were cultured in RPMI medium (Thermo Fisher). MES–SA and MES–SA/Dx5 uterine sarcoma cell lines were purchased from American Type Culture Collection and were kept in DMEM (Thermo Fisher). MES–SA/B1 was created by the transfection of the human MDR1 gene in MES–SA, and MES–SA mCherry, MES–SA/B1 mOrange, and MES–SA/Dx5 eGFP were engineered to stably express the respective fluorescent proteins, as described previously. Culture media were supplemented with 10% fetal bovine serum, 2 mM L-glutamine, 100 units/mL penicillin, and 100 μg/mL streptomycin (Thermo Fisher). Cells were kept at 37 °C under 5% CO2 and were negative for mycoplasma infection.
(§2) Cytotoxicity of the nonfluorescent cancer cells (MDA-MB-231, MCF-7, T-47D) were assessed with PrestoBlue cell viability reagent (Thermo Fisher). Briefly, 2500 cells/well were seeded on 384-well plates, and then the next day drugs were added. After 72 h incubation, PrestoBlue was added in a 10% final concentration, and after an hour of additional incubation, plates were measured with a PerkinElmer EnSpire plate reader at 555 nm/585 nm excitation/emission wavelengths. Fluorescent cells (MES-SA mCherry, MES-SA/B1 mOrange, MES-SA/Dx5 eGFP) were admixed before seeding on 384-well plates at 800 cells/well density each, thus altogether 2400 cells/well. Drugs were added the following day, and the intensity of the fluorescent proteins were measured after 144 h incubation at the respective fluorescent channels (excitation/emission: eGFP: 485 nm/510 nm; mCherry: 585 nm/610 nm; mOrange: 545 nm/567 nm). pIC50 values were calculated by a custom program written by Judit Sessler in C#. IC50 values and standard deviation were calculated from average pIC50 values from at least 3 independent measurements. Since the IC50 values were obtained through nonlinear regression fitting of the viability vs. log(concentration) data, the resulting confidence intervals are inherently asymmetric (see pIC50 values and their corresponding SD in Tables S5 and S6).

MDA-MB-231 = test: PrestoBlue cytotoxicity assay; type: cell-based
Method: as §1, §2

T47D = test: PrestoBlue cytotoxicity assay; type: cell-based
Method: as §1, §2

[1] = system: MDA-MB-231, MCF-7 and T-47D breast cancer cell lines; test: PrestoBlue cytotoxicity, range over the three breast cancer lines; type: cell-based; settings: MDA-MB-231, MCF-7, T-47D; 72 h
Method: The PHEN-derived ligands (DCP, BP) (together with PHEN for comparison) and the isolated complexes ([RuCym(DCP)-Cl]-Cl, [RhCp*(DCP)-Cl]-Cl, [RuCym(BP)-Cl]-Cl, [RhCp*(BP)-Cl]-Cl) were tested against the estrogen receptor (ER) negative MDA-MB-231, and the ER positive MCF-7 and T-47D breast cancer cell lines (Table , and Figure a for easier comparison).
as §1
as §2, with “measurements.” for “measurements. Since the IC50 values were obtained through nonlinear regression fitting of the viability vs. log(concentration) data, the resulting confidence intervals are inherently asymmetric (see pIC50 values and their corresponding SD in Tables S5 and S6).”

MES-SA mCherry = test: fluorescent triple coculture cytotoxicity assay; type: cell-based, human; settings: 384-well plate
Excerpt: (§3) Cytotoxicity of the compounds were further tested also in an in vitro MDR model system, consisting of an MES-SA uterine sarcoma cell line, and its P-gp (ABCB1) overexpressing variants MES-SA/B1, that was genetically engineered to express P-gp, and MES-SA/Dx5, which acquired a P-gp-mediated MDR phenotype due to selection in doxorubicin. , The expression of different fluorescent proteins in each line (mCherry, mOrange, or eGFP) allowed coculturing of these three cell lines, providing more relevant data compared to monocultures, as the interaction between parental and resistant phenotypes is reflected in cytotoxicity.
(§4) Cytotoxicity of nanoformulated [RhCp*(BP)-Cl]-Cl with cross-linked HSA and HTP carriers was tested against the previously introduced triple coculture of fluorescent MES-SA cells with a slight difference. Namely, the media containing the dissolved products were removed from the wells, and fresh media was added prior to the measurement as the presence of cross-linked HSA and HTP formulations interfered with the fluorescence of the cells.
as §1
as §2, with “Fluorescent cells (MES-SA mCherry, MES-SA/B1 mOrange, MES-SA/Dx5 eGFP) were admixed before seeding on 384-well plates at 800 cells/well density each, thus altogether 2400 cells/well.” left out

MES-SA/B1-mOrange = test: fluorescent triple coculture cytotoxicity assay; type: cell-based, human; settings: 384-well plate; for SR (MES-SA/B1): selectivity ratio versus parental MES-SA
Excerpt: as §3, §4, §1
as §2, with “Fluorescent cells (MES-SA mCherry, MES-SA/B1 mOrange, MES-SA/Dx5 eGFP) were admixed before seeding on 384-well plates at 800 cells/well density each, thus altogether 2400 cells/well.” left out

MES-SA/Dx5-eGFP = test: fluorescent triple coculture cytotoxicity assay; type: cell-based, human; settings: 384-well plate; for SR (MES-SA/Dx5): selectivity ratio versus parental MES-SA
Excerpt: as §3, §4, §1
as §2, with “Fluorescent cells (MES-SA mCherry, MES-SA/B1 mOrange, MES-SA/Dx5 eGFP) were admixed before seeding on 384-well plates at 800 cells/well density each, thus altogether 2400 cells/well.” left out

[2] = biological target: T1, human serum albumin (HSA), Trp-214 in Sudlow’s site I (Homo sapiens, UniProt P02768); settings: cited from earlier work; for logK Q′ (quenching constant): organometallic precursors, PBS’, t = 25 °C
T1 construct: purchased Sigma-Aldrich A8763

[3] = biological target: T2, HSA Sudlow’s site I (IIA subdomain) (Homo sapiens, UniProt P02768); settings: organometallic precursors; PBS’; t = 25 °C; ref footnote a (ref 56); cited from earlier work
T2 construct: purchased Sigma-Aldrich A8763

[4] = Homo sapiens, 72 h, 384-well plate, read-out: IC50
[5] = Homo sapiens, Table S5, read-out: pIC50 (mean) (converted)
[6] = Homo sapiens, MES-SA, 144 h, MES-SA mCherry, coculture, 144 h, read-out: IC50
[7] = Homo sapiens, MES-SA, Mes-Sa mCherry, Table S6, read-out: pIC50 (mean) (converted)
[8] = MES-SA mCherry, coculture, 144 h, read-out: IC50
[9] = Homo sapiens, MES-SA/B1-mOrange, coculture, 144 h, read-out: IC50
[10] = Homo sapiens, Mes-Sa/B1 mOrange, Table S6, read-out: pIC50 (mean) (converted)
[11] = Homo sapiens, MES-SA/Dx5-eGFP, coculture, 144 h, read-out: IC50
[12] = Homo sapiens, Mes-Sa/Dx5 eGFP, Table S6, read-out: pIC50 (mean) (converted)
[13] = 72 h, 384-well plate, read-out: IC50

T1 sequence (P02768 25-609): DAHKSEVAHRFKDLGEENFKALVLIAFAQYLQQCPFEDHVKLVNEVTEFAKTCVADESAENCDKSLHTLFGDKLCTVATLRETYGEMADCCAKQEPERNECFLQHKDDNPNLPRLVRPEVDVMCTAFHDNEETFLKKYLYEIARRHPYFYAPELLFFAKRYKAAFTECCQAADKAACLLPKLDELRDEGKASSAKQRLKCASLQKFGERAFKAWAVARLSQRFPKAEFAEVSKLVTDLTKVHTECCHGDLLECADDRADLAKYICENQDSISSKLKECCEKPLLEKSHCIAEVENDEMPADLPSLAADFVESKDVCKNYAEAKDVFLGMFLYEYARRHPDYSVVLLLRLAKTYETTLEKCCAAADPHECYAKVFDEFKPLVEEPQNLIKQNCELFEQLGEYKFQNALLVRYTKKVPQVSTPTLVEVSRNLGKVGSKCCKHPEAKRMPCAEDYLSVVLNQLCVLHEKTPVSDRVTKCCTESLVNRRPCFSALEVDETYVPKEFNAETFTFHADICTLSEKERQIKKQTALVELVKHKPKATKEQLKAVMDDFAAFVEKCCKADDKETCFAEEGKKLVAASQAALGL
T2 sequence (P02768 25-609): as above

Compound	IC50 [1] [µM]	IC50 (MES-SA mCherry; [6]) [µM]	IC50 (MES-SA mCherry; [7]) [µM]	IC50 (MES-SA mCherry; [8]) [µM]	IC50 (MES-SA/B1-mOrange; [9]) [µM]	IC50 (MES-SA/B1-mOrange; [10]) [µM]	SR (MES-SA/B1) (MES-SA/B1-mOrange)	IC50 (MES-SA/Dx5-eGFP; [11]) [µM]	IC50 (MES-SA/Dx5-eGFP; [12]) [µM]	SR (MES-SA/Dx5) (MES-SA/Dx5-eGFP)	logK Q′ (quenching constant) [2]	logK WF′ (WF displacement constant) [3]	also measured
c1cnc2c(c1)ccc1cccnc12 [PHEN, 1,10-phenanthroline]	3.2 to 8.6	3	2.95	2.95	1.39	1.38	2.1	0.41	0.417	7.1			IC50 (MCF-7; Homo sapiens, MCF7, 72 h, 384-well plate, read-out: IC50): 8.57 µM; IC50 (MCF-7; Homo sapiens, MCF7, Table S5, read-out: pIC50 (mean) (converted)): 8.51 µM; IC50 (MDA-MB-231; [4]): 3.2 µM; IC50 (MDA-MB-231; [5]): 3.16 µM; IC50 (T47D; [4]): 5.47 µM; IC50 (T47D; [5]): 5.5 µM
[Ru].c1cnc2c(c1)ccc1cccnc12.c1cnc2c(c1)ccc1cccnc12.c1cnc2c(c1)ccc1cccnc12 [[Ru(PHEN)3]^2+]													interaction with HSA ([2]; ref number not given): negligible interaction
N.N.[Cl][Pt][Cl] [cisplatin]	3.2 to 7			1.49			0.9			0.3			IC50 (MCF-7; [13]): 4.78 µM; pIC50 (mean) (MCF-7; Table S5): 5.32; IC50 (MDA-MB-231; [13]): 3.16 µM; pIC50 (mean) (MDA-MB-231; Table S5): 5.50; IC50 (T47D; [13]): 6.98 µM; pIC50 (mean) (T47D; Table S5): 5.16; pIC50 (mean) (MES-SA mCherry; Mes-Sa mCherry, Table S6): 5.83; IC50 (MES-SA/B1-mOrange; MES-SA/B1-mOrange, coculture, 144 h, read-out: IC50): 1.71 µM; pIC50 (mean) (MES-SA/B1-mOrange; Mes-Sa/B1 mOrange, Table S6): 5.77; IC50 (MES-SA/Dx5-eGFP; MES-SA/Dx5-eGFP, coculture, 144 h, read-out: IC50): 4.28 µM; pIC50 (mean) (MES-SA/Dx5-eGFP; Mes-Sa/Dx5 eGFP, Table S6): 5.37
COc1cc([C@@H]2c3cc4c(cc3[C@@H](O[C@@H]3O[C@@H]5CO[C@@H](C)O[C@H]5[C@H](O)[C@H]3O)[C@H]3COC(=O)[C@H]23)OCO4)cc(OC)c1O [etoposide]		0.2	0.2		1.19	1.17	0.2	2.08	2.09	0.1			resistance of MES-SA/B1 versus parental line (MES-SA/B1-mOrange; coculture): 6 fold; resistance of MES-SA/Dx5 versus parental line (MES-SA/Dx5-eGFP; coculture): 10 fold
[Rh(η^5-C5Me5)Cl2]2 [RhCp*precursor]											5.8 ^a	6.1 ^a	logK Q′ (quenching constant) ([2]; listed as precursor RhCp*): 5.8
[Ru(η^6-p-cymene)Cl2]2 [RuCym precursor]											5.7 ^a	5.9 ^a	
